US10961197B2, “Metal chelators for imaging, therapeutics, and bioanalysis” (THE BOARD OF TRUSTEES OF THE UNIVERSITY OF ILLINOIS, priority 2016, dated 2021)

Columns and labels:
Format in all cases: physicochemical
[1] = EDTA challenge assay of kinetic inertness (luminescence over time, 5 nM complex, 1 mM EDTA); conditions: for stability in EDTA solution: for 2 days
Protocol: FIG. 2 is a graph of the relative kinetic stability as measured by the luminescence signal intensity at ca. 545 nm (for Tb(III) complexes) or 620 nm (for Eu(III) complexes) for various dilute aqueous solutions (5 nM) of the indicated metal complexes in TBS buffer containing 1 mM EDTA.
FIG. 3 is a graph of the relative kinetic stability as measured by the luminescence signal intensity at ca. 545 nm (for Tb(III) complexes) or 620 nm (for Eu(III) complexes) for various dilute aqueous solutions (5 nM) of the indicated metal complexes in TBS buffer containing 1 mM EDTA.
The cyclic TTHA-based complexes Tb-12a and Eu-12b were still more than 40% in emissive after 48 h.
(§1) Complete metallation, as judged by formation of green Tb luminescence, occurred in less than 15 min. The resulting complex was then diluted to a final concentration of 5 nM in buffer solution that contained a much higher concentration (1 mM) of a competing chelator, ethylene diamine tetraacetic acid (EDTA). By observing the metal luminescence over time, the kinetic inertness of compound iii relative to that of other known chelators was assessed.

[2] = Quantum yield of emission of lanthanide complexes in water / aqueous buffer; conditions: Tb complex
Protocol: A cyclohexyl analog of the metal chelator was prepared with methylenecarboxylate pendant groups and a sensitizing chromophore (carbostyril 124) appended to one of the central nitrogens (compound iii). The synthesis of compound iii was remarkably efficient (8 steps, 45% overall yield). Moreover, it can be scaled up and altered to prepare different derivatives, as evidenced by the incorporation of a single chromophore into the structure. Given its position in the molecule, the amide oxygen between the cyclohexyl nitrogen and the chromophore may coordinate to a bound Tb ion. This coordination in turn would allow for efficient sensitization of metal luminescence and result in a high quantum yield of emission. […] The quantum yield of compound iii exceeded 50% in water, making it among the most efficient luminescent Tb complexes known.
All of the complexes prepared show characteristic lanthanide emission spectra. UV-Vis absorption spectra closely matched those of previously reported carbostyril-sensitized complexes. […] The efficient emission and lack of bound waters support the hypothesis that inner substitution positions the sensitizer such that it remains coordinated to the metal center.

[3] = Metallation of chelator with Tb in buffer at 1:1 ratio, judged by green Tb luminescence; conditions: 1:1 ratio in buffer
Protocol: as §1

Compound	stability in EDTA solution [1]	time to complete dissociation from Tb(III) [1]	quantum yield [2]	time to equilibrate with the EDTA solution ([1]; Tb complex) [h]	time to complete metallation [3]
O=C(O)CN1CCN(CC(=O)O)CCN(CC(=O)O)CCN(CC(=O)O)CC1 [DOTA, 1,4,7,10-tetraazacyclododecane-1,4,7,10-tetraacetic acid]	remains essentially stable				
O=C(O)CN(CCN(CC(=O)O)CC(=O)O)CCN(CC(=O)O)CC(=O)O [DTPA, diethylamine triamine pentaacetic acid]		ca. 10 h			
DOTAm	remains essentially stable				
Cc1cc(=O)[nH]c2c(NC(=O)CN(CCN(CC(=O)O)[C@@H]3CCCC[C@H]3N(CC(=O)O)CC(=O)O)[C@H]3CCCC[C@@H]3N(CC(=O)O)CC(=O)O)cccc12 [Compound iii]	remains essentially stable		exceeded 50%	2 to 3	less than 15 min
